Activity calls are given as the source filed them. The calls are words filed in the database; no cut-off is given here.
Experiments:
[1] = Cytotoxicity against human U87 cells by MTT assay; format: functional, cell-based, U-87MG ATCC; details: U-87 MG
HGC-27 [2] = assay: Induction of apoptosis in HGC27 cells assessed as necrotic cells at 8 uM after 24 hrs in presence of cathepsin-B inhibitor-3 by Annexin-V-FITC/propidium iodide staining-based flow cytometry; format: functional, cell-based; details: Homo sapiens
HGC-27 [3] = assay: Induction of apoptosis in HGC27 cells at 8 uM after 24 hrs in presence of caspase 8 inhibitor Z-IETD-FMK by Annexin-V-FITC/propidium iodide staining-based flow cytometry; format: functional, cell-based; details: Homo sapiens
HGC-27 [4] = assay: Induction of apoptosis in HGC27 cells assessed as apoptotic cells after 24 hrs by Annexin-V-FITC/propidium iodide staining-based flow cytometry; format: functional, cell-based; details: Homo sapiens
HGC-27 [5] = assay: Induction of apoptosis in HGC27 cells at 8 uM after 24 hrs in presence of caspase 9 inhibitor Z-LEHD-FMK by Annexin-V-FITC/propidium iodide staining-based flow cytometry; format: functional, cell-based; details: Homo sapiens
HeLa [6] = assay: Cytotoxicity against human HeLa cells assessed as inhibition of cell viability at 100 uM after 24 hrs by MTT assay; format: functional, cell-based
HEK293 = assay: Cytotoxicity against HEK293 cells by MTT assay; format: cell-based; details: Homo sapiens
HeLa [7] = assay: Cytotoxicity against human HeLa cells after 24 hrs by MTT assay; format: functional, cell-based
[8] = Cell cycle arrest in HGC27 cells assessed as decrease in G2/M phase population after 24 hrs at 5 uM by propidium idoide staining based flow cytometric analysis; format: functional; details: Homo sapiens, HGC-27
[9] = Cytotoxicity against HGC27 cells assessed as cellular ATP level after 24 hrs by SRB assay; format: functional, cell-based; details: Homo sapiens, HGC-27, 24 h
[10] = Cell cycle arrest in HGC27 cells assessed as decrease in S-phase population after 24 hrs at 5 uM by propidium idoide staining based flow cytometric analysis; format: functional; details: Homo sapiens, HGC-27
HGC-27 [11] = assay: Induction of apoptosis in HGC27 cells at 8 uM after 24 hrs in presence of pan-caspase inhibitor Z-VAD-FMK by Annexin-V-FITC/propidium iodide staining-based flow cytometry; format: functional, cell-based; details: Homo sapiens
HGC-27 [12] = assay: Induction of apoptosis in HGC27 cells at 8 uM after 24 hrs in presence of cathepsin-B inhibitor-3 by Annexin-V-FITC/propidium iodide staining-based flow cytometry; format: functional, cell-based; details: Homo sapiens
HGC-27 [13] = assay: Induction of autophagy in HGC27 cells assessed as increase in LC3-2 level after 24 hrs by Western blotting method in presence of lysosomal dysfunction inducer PI; format: functional, cell-based; details: Homo sapiens
[14] = Cell cycle arrest in HGC27 cells assessed as accumulation at G0/G1 phase after 24 hrs at 5 uM by propidium idoide staining based flow cytometric analysis; format: functional; details: Homo sapiens, HGC-27
HGC-27 [15] = assay: Induction of apoptosis in HGC27 cells assessed as increase in necrotic cells at 2 uM co-treated with autophagy inhibitor 3-MA after 24 hrs by Annexin-V-FITC/propidium iodide staining-based flow cytometry; format: functional, cell-based; details: Homo sapiens
HGC-27 [16] = assay: Induction of apoptosis in HGC27 cells assessed as increase in necrotic cells at 2 uM co-treated with autophagy inhibitor chloroquine after 24 hrs by Annexin-V-FITC/propidium iodide staining-based flow cytometry; format: functional, cell-based; details: Homo sapiens
HGC-27 [17] = assay: Induction of autophagy in HGC27 cells assessed as increase in LC3-2 level after 24 hrs by Western blotting method; format: functional, cell-based; details: Homo sapiens
HGC-27 [18] = assay: Induction of apoptosis in HGC27 cells at 2 uM co-treated with autophagy inhibitor 3-MA after 24 hrs by Annexin-V-FITC/propidium iodide staining-based flow cytometry; format: functional, cell-based; details: Homo sapiens
HGC-27 [19] = assay: Induction of apoptosis in HGC27 cells assessed as reduction in mitochondrial membrane potential at 2 and 8 uM after 24 hrs by JC-1 staining based flow cytometric analysis; format: functional, cell-based; details: Homo sapiens
[20] = Cytotoxicity against human T98 cells by MTT assay; format: functional, cell-based
HeLa [21] = assay: Cytotoxicity against human HeLa cells assessed as inhibition of cell viability at 20 uM after 24 hrs by MTT assay; format: functional, cell-based
[22] = Cytotoxicity against HGC27 cells after 48 hrs by MTT assay; format: functional, cell-based; details: Homo sapiens, HGC-27, 48 h
MDCK [23] = assay: Cytotoxicity against MDCK cells by MTT assay; format: cell-based; details: Canis lupus familiaris
HGC-27 [24] = assay: Induction of apoptosis in HGC27 cells assessed as necrotic cells at 8 uM after 24 hrs in presence of RIP1 inhibitor necrostatin-1 by Annexin-V-FITC/propidium iodide staining-based flow cytometry; format: functional, cell-based; details: Homo sapiens
Vero [25] = assay: Cytotoxicity against African green monkey Vero cells by MTT assay; format: cell-based; details: Chlorocebus sabaeus
HGC-27 [26] = assay: Induction of apoptosis in HGC27 cells at 2 uM co-treated with autophagy inhibitor chloroquine after 24 hrs by Annexin-V-FITC/propidium iodide staining-based flow cytometry; format: functional, cell-based; details: Homo sapiens
HGC-27 [27] = assay: Induction of apoptosis in HGC27 cells assessed as apoptotic cells at 8 uM after 24 hrs by Annexin-V-FITC/propidium iodide staining-based flow cytometry (reference value: 6.7%); format: functional, Homo sapiens
[28] = Cell cycle arrest in HGC27 cells assessed as accumulation at G2/GM phase after 24 hrs at 500 nM by propidium idoide staining based flow cytometric analysis; format: functional; details: Homo sapiens, HGC-27
MDCK [29] = assay: Cytotoxicity against MDCK cells assessed as cellular ATP level after 24 hrs by SRB assay; format: cell-based; details: Canis lupus familiaris
HGC-27 [30] = assay: Induction of apoptosis in HGC27 cells assessed as apoptotic cells at 2.5 uM after 24 hrs by Annexin-V-FITC/propidium iodide staining-based flow cytometry (reference value: 6.7%); format: functional, Homo sapiens
[31] = (§1) Cytotoxicity against HGC27 cells after 24 hrs by MTT assay; format: functional, cell-based; details: Homo sapiens, HGC-27, 24 h
HGC-27 [32] = assay: as §1; format: functional, cell-based; details: Homo sapiens
Vero [33] = assay: Cytotoxicity against African green monkey Vero cells assessed as cellular ATP level after 24 hrs by SRB assay; format: cell-based; details: Chlorocebus sabaeus
HGC-27 [34] = assay: Induction of apoptosis in HGC27 cells assessed as apoptotic cells at 1 uM after 24 hrs by Annexin-V-FITC/propidium iodide staining-based flow cytometry (reference value: 6.7%); format: functional, Homo sapiens
HGC-27 [35] = assay: Induction of reactive oxygen species formation in HGC27 cells at 1.4 to 24 uM after 5 hrs using DCFH-DA probe by spectrofluorimetry; format: functional, cell-based; details: Homo sapiens

O=c1c(Nc2cc(C(F)(F)F)cc(C(F)(F)F)c2)c(N[C@@H](c2ccccc2)C(O)(c2ccccc2)c2ccccc2)c1=O
IC50 [1]: 60.2 µM
Activity (HGC-27 [2]): Active
Activity (HGC-27 [3]): Active
Activity (HGC-27 [4]): Dose-dependent effect
Activity (HGC-27 [5]): inactive
inhibition (HeLa [6]): Active
IC50 (HEK293): 9.03 µM
IC50 (HeLa [7]): 34.6 µM
Activity [8]: Active
IC50 [9]: 9.74 µM
Activity [10]: Active
Activity (HGC-27 [11]): Active
Activity (HGC-27 [12]): Active
Activity (HGC-27 [13]): Active
Activity [14]: Active
Activity (HGC-27 [15]): Active
Activity (HGC-27 [16]): Active
Activity (HGC-27 [17]): Active
Activity (HGC-27 [18]): Active
Activity (HGC-27 [19]): Active
IC50 [20]: 7.15 µM
inhibition (HeLa [21]): Active
IC50 [22]: 0.66 µM
IC50 (MDCK [23]): 70.2 µM
Activity (HGC-27 [24]): Active
IC50 (Vero [25]): 33.4 µM
Activity (HGC-27 [26]): Active
Activity (HGC-27 [27]): 60.1%
Activity [28]: Active
IC50 (MDCK [29]): 149 µM
Activity (HGC-27 [30]): 24.7%
IC50 [31]: 1.81 µM
Activity (HGC-27 [32]): Dose-dependent effect
IC50 (Vero [33]): 73.9 µM
Activity (HGC-27 [34]): 2.4%
Activity (HGC-27 [35]): inactive
